Earlier results, collected in patent US9433602B2, “Combination and composition for treating obesity” (LABORATORIOS SENOSIAIN S.A. DE C.V., priority 2010, dated 2016).
“And” between values parts separate entries of the source, which are not always exact repeats. Equal values may be shown once.

What was measured:
[1] = humans, taken orally
[2] = not given; remark: listed apart in the source
[3] = system: gastric and pancreatic lipases; details: pharmacological effect of the drug

Bioavailability [1] | Half-life [1] | Plasma concentrations of intact orlistat (after single administration of 360 mg, normal weight and obese subjects) [ng/mL] | Plasma concentrations in general (in general, no evidence of accumulation) | Share of the fecally excreted dose that was unchanged orlistat (of the dose excreted in feces) [%] | Administered dose excreted in feces (people with normal weight or obese) | Solubility in chloroform ([2]; chloroform) | Solubility in water [2] | Solubility in alcohol and methanol ([2]; alcohol and methanol) | Solubility in hydrochloric acid 10% ([2]; hydrochloric acid 10%) | SMILES | Decrease of the absorption of ingested fat [3] [%]
relatively low | approximately 8 h | – | – | – | – | – | – | – | – | Oc1ccc(/C=C/c2cc(O)cc(O)c2)cc1 [trans-resveratrol] | –
– | – | < 5 | < 10 ng/ml and < 0.02 μM | 83 | Approximately 97% | easily soluble in chloroform | insoluble in water | – | – | CCCCCCCCCCC[C@@H](C[C@@H]1OC(=O)[C@H]1CCCCCC)OC(=O)[C@H](CC(C)C)NC=O [orlistat] | 30
– | – | – | – | – | – | – | insoluble in water | soluble in alcohol and methanol | insoluble in hydrochloric acid 10% | Oc1ccc(C=Cc2cc(O)cc(O)c2)cc1 [Resveratrol, 3,5,4′-trihydroxystilbene] | –
